Columns and labels:
[1] = system: BICR78 (Oral Cavity Carcinoma); assay: Bliss excess, mean over the matrix (fraction); higher = more synergy
Method in brief: (§1)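 Cell lines in DMEM/F12 or RPMI with 10% FBS were plated in 1536-well plates, held 24 hours at 37°C, 5% CO2, then given two-drug dose matrices for 72 hours (DMSO typically 0.2%). Viability was read by CellTiter-Glo 2.0 luminescence and scaled as inhibition from 0 (vehicle wells) to 1 (blank wells). Combination Emax is the second-highest inhibition in the matrix; Bliss excess is observed combination effect minus expected EA + EB − EA·EB, EA and EB being single-agent effects.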

[2] = system: D-392MG (Glioblastoma); assay: as above
Method in brief: as §1

[3] = system: EFM-192A (Breast Carcinoma); assay: as above
Method in brief: as §1

[4] = system: EW-22 (Ewing's Sarcoma); assay: as above
Method in brief: as §1

[5] = system: HCC-827 (Lung Adenocarcinoma); assay: as above
Method in brief: as §1

[6] = system: P31-FUJ (Acute Myeloid Leukemia); assay: as above
Method in brief: as §1

[7] = system: PA-TU-8902 (Pancreatic Carcinoma); assay: as above
Method in brief: as §1

[8] = system: RCC10RGB (Kidney Carcinoma); assay: as above
Method in brief: as §1

[9] = system: SK-LMS-1 (Other Solid Carcinomas); assay: as above
Method in brief: as §1

[10] = system: SK-UT-1 (Other Solid Carcinomas); assay: as above
Method in brief: as §1

[11] = system: SW948 (Colorectal Carcinoma); assay: as above
Method in brief: as §1

[12] = system: Saos-2 (Osteosarcoma); assay: as above
Method in brief: as §1

[13] = system: TYK-nu (Ovarian Carcinoma); assay: as above
Method in brief: as §1

[14] = system: YT (Other Blood Carcinomas); assay: as above
Method in brief: as §1

[15] = system: 647-V (Bladder Carcinoma); assay: combination Emax (second highest fraction inhibited in the dose matrix, 72 h); higher = more inhibition; extreme values may be limits of the assay
Method in brief: as §1

[16] = system: CS1 (Chondrosarcoma); assay: as above
Method in brief: as §1

[17] = system: EW-22 (Ewing's Sarcoma); assay: as above
Method in brief: as §1

[18] = system: HOP-92 (Non-Small Cell Lung Carcinoma); assay: as above
Method in brief: as §1

[19] = system: SW48 (Colorectal Carcinoma); assay: as above
Method in brief: as §1

[20] = system: Saos-2 (Osteosarcoma); assay: as above
Method in brief: as §1
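Wherever Bliss excess, mean over the matrix is given: after 72 h of two-drug dosing.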

| SMILES | Bliss excess [1] | Bliss excess [2] | Bliss excess [3] | Bliss excess [4] | Bliss excess [5] | Bliss excess [6] | Bliss excess [7] | Bliss excess [8] | Bliss excess [9] | Bliss excess [10] | Bliss excess [11] | Bliss excess [12] | Bliss excess [13] | Bliss excess [14] | combination Emax [15] | combination Emax [16] | combination Emax [17] | combination Emax [18] | combination Emax [19] | combination Emax [20] |
| --- | --- | --- | --- | --- | --- | --- | --- | --- | --- | --- | --- | --- | --- | --- | --- | --- | --- | --- | --- | --- |
| Cc1c2c(nn1C)CSCc1cc(n(C)n1)CSc1cc(c3ccccc3c1)OCCCc1c(C(=O)O)n(C)c3c-2c(Cl)ccc13 [AZD5991] + C1CN(CCC1(C(=O)N[C@@H](CCO)C2=CC=C(C=C2)Cl)N)C3=NC=NC4=C3C=CN4 [Capivasertib] (first compound max 1 µM, 7x7, partner max 3 µM) | -0.0198 | 0.0557 | 0.0579 | 0.0007 | -0.0212 | 0.0182 | -0.041 | -0.0085 | 0.0054 | 0.0297 | 0.0308 | 0.0473 | 0.0172 | -0.0466 | 0.676 | 0.255 | 0.624 | 0.402 | 0.28 | 0.52 |
| CC1(C)CCC(CN2CCN(c3ccc(C(=O)NS(=O)(=O)c4ccc(NCC5CCOCC5)c([N+](=O)[O-])c4)c(Oc4cnc5[nH]ccc5c4)c3)CC2)=C(c2ccc(Cl)cc2)C1 [Venetoclax] + Cn1cnc2c(F)c(Nc3ccc(Br)cc3Cl)c(C(=O)NOCCO)cc21 [Selumetinib] (first compound max 1 µM, 7x7, partner max 3 µM) | -0.0354 | -0.0331 | -0.0245 | -0.0233 | -0.0212 | -0.0968 | -0.0178 | -0.079 | -0.029 | 0.0043 | -0.0505 | -0.0057 | -0.0594 | 0.0297 | 0.133 | 0.278 | 0.855 | 0.148 | 0.52 | 0.299 |
| Cc1nc(Nc2ncc(C(=O)Nc3c(C)cccc3Cl)s2)cc(N2CCN(CCO)CC2)n1 [Dasatinib] + CC(=O)Nc1cccc(-n2c(=O)n(C3CC3)c(=O)c3c(Nc4ccc(I)cc4F)n(C)c(=O)c(C)c32)c1 [Trametinib] (first compound max 2 µM, 7x7, partner max 1 µM) | -0.0401 | 0.0155 | -0.0545 | -0.0457 | -0.0114 | 0.108 | 0.0404 | -0.0719 | -0.0457 | -0.0255 | -0.008 | 0.0164 | 0.0895 | -0.0521 | 0.483 | 0.568 | 0.0877 | 0.928 | 0.959 | 0.335 |

From the supplement of paper PMC11061612
